Laboratory results taken from patent US20080275105A1, “Selective Muscle Relaxant and Pharmaceutical Compositions” (UNIVERSIDADE FEDERAL DO RIO DE JANEIROUFRJ, priority 2004, published 2008).
Where “and” joins values, the source holds several entries; their conditions need not be identical. Identical values can stand only once. Entries after “also recorded” stand apart in the source; their conditions may differ.

Tests used:
rat papillary muscle = assay: Isometric tension (electrically stimulated twitches) in papillary muscle; assay type: cell-based; conditions: for maximum alterations to the papillary muscle twitches: 10 to 100 μM, not significant; for amplitude of the papillary muscle twitches: 100 μM, 1 Hz stimulation
Protocol: (§1) Once the experiments have been carried out, the findings were subject to statistical analyses being expressed in average ±SEM as a percentage of the control value, and graphs were drawn up using the Sigma Plot 5.0 program to represent the data obtained. For the statistical analysis of the effects on the different muscle tissues, the difference was assessed among the concentrations of the same derivative, using the “t” Student test. In order to ascertain the difference among the derivatives, the one-way ANOVA test was used. The differences were considered as significant for p<0.05. The Cl50 was expressed as an average ±SEM of the values obtained for each experiment through non-linear regression based on the y=yo+ae^−bx equation.
(§2) After anesthesia with ethyl ether, male Wistar rats weighing between 240-280 grams were sacrificed through cervical dislocation. The heart was removed rapidly and the papillary muscle and the ventricular bundles were dissected in Tyrode's solution, whose composition is given in Table 2 below, at room temperature. The muscles were placed in vertical chambers with a capacity of 10 mL and fixed at their extremities: the lower portion to a hook located in the stimulation electrode fixation rod and the upper portion connected to a power transducer (Grass FT03) for recording the muscle twitches.
(§3) The muscles were stimulated electrically with supra-maximum voltage (50-60 V) through a stimulator (Grass S88) at a frequency of 1.0 Hz. The signals captured by the transducer were amplified (Cyberamp 380, Axon Instruments) and the isometric tension was digitized (Digidata 1322A, Axon Instruments) and stored on a computer. The screening and analysis of the experiment was handled through the Axoscope 8.0 program (Axon Instruments) (Sudo & cols., 2001). The chamber solution was bubbled continuously with a carbogenic mixture (95% O2/5% CO2) and kept at a temperature of 37° C.
(§4) After the stabilization of the muscle twitches (approximately 30 min) the records were carried out in the absence (control) and presence of rising concentrations (10 to 100 μM) of the different L294 analogs, diluted in DMSO. The records were carried out in pairs (two papillary and two ventricle) thus allowing the control experiments to be carried out in one of the pairs, meaning with rising quantities of DMSO equivalent to those used to dilute the substances. The reversibility of the effect of the substances was investigated at the end of each experiment, noting the recovery of the muscle twitches after bathing the preparation with Tyrode's solution.

[1] = tested on: left ventricle bundles of a rat heart; assay: Isometric tension in ventricular bundles; assay type: cell-based; conditions: for muscular response in ventricular bundles: concentration not given, alterations not greater than 10%
Protocol: as §1, §2, §3, §4

[2] = tested on: rat aorta rings with the vascular endothelium preserved; assay: Phenylephrine-induced contracture in aorta rings with preserved endothelium; assay type: cell-based; conditions: phenylephrine 10 μM; for IC50: Rattus norvegicus, with endothelium, six experiments, read-out: CI50 (μM) Average ± SEM
Protocol: as §1
(§5) Male Wistar rats weighing between 240-280 grams were sacrificed through dislocation of the cervical column under anesthesia using ethyl ether. The aorta artery was removed and transferred to a Petri dish containing modified Tyrode's solution whose composition is described in Table 3 below, where the vessel was cleaned and the connective tissue was removed. According to the scheduled Experiment Protocol, the vascular endothelium was removed mechanically with the assistance of a polyethylene rod. The artery was divided into rings with a width of 2-3 mm. Two hooks were placed in the wall of the vessel in order to record the tension generated by the muscle in a transversal direction. To do so, one of the hooks was tied to a fixed point in the chamber and the other to a power transducer (FT 03) for recording the isometric tension. The tension generated by the muscle was transformed into a digitized electric signal (Digidata 1322A) and stored in a computer for subsequent analysis using the Axoscope 8.0 program (Axon Instruments, Inc). The chamber was filled with Krebs solution, oxygenated and kept at a temperature of 37° C.
(§6) After stabilizing the preparation, approximately 120 minutes, the Experiment Protocol began. Initially, in order to identify the presence or absence of the vascular endothelium, the preparation was exposed to phenylephrine (10 μM) and when the contracture in response to this substance was stabilized, acetylcholine (10 μM) was added to the nutrient solution. Relaxation of over 80% in response to the acetylcholine indicated the full integrity of the endothelium and relaxation of less than 10% indicated the absence of endothelium. The tissues in which the relaxation intensity fell between >10% and <80% were discarded. In order to investigate the vasodilator effect of the different L294 analogs, they were added to the experiment chambers in rising concentration after the contracture stabilization of the vessel induced by phenylephrine. The tension registered after treatment with each of the L294 analog concentrations was normalized as a function of the amplitude of the contracture triggered by phenylephrine. For the purpose of comparing the potency of some of the L294 analogs, the Cl50 was determined for each experiment using the y=yo+ae^−bx equation and their mean was used for the statistical analysis.

[3] = tested on: aorta rings with no preserved endothelium; assay: Phenylephrine-induced contracture in aorta rings without endothelium; assay type: cell-based, rat; conditions: phenylephrine 10 μM; for IC50: Rattus norvegicus, without endothelium, six experiments, read-out: CI50 (MM) Average ± SEM; for vasodilatory / relaxing effect on phenylephrine contracture, without endothelium: result in words
Protocol: as §1, §5, §6
The importance of the presence of vascular endothelium in the vasodilatory action of the L294 analogs was assessed in experiments in which these cells were removed mechanically. […] When the findings of the experiments without the endothelium were analyzed as a whole, the absence of the L790 effect was confirmed. […] The maximum relaxation caused by the L787 and L789 analogs was less than 50% of the control, and the other analogs caused relaxation in the following decreasing order of efficacy: L785>L788>L786. Once again, attention is drawn to the marked efficiency of the L785 and L788 analogs.

[4] = tested on: extensor digitorium longus (EDL) muscle; assay: Electrically induced twitch amplitude in fast-fiber skeletal muscle (EDL); assay type: cell-based, mice; conditions: for EDL twitch amplitude 30 min-Washing (% of the control): 30 min after washing
Protocol: (§7) Male mice weighing 22-28 g were sacrificed through cervical dislocation and the extensor digitorium longus (EDL) and soleus (SOL) muscles were dissected in a Ringer-Krebs solution, whose composition is given in Table 9, at room temperature. The muscles were placed in vertical chambers with a capacity of 10 ml, and were fixed by their ends to the stimulation electrode fixation rod and a power transducer (Grass FT03) for registering muscle twitches. The chamber solution was bubbled continuously with a carbogenic mixture (95% O2/5% CO2) and kept at a temperature of 37° C. The muscles were stimulated electrically through a stimulator (Grass S88) at a frequency of 0.2 Hz, at 37° C. After the stabilization of the muscle twitches (±30 minutes) a control record was taken in the absence of the drug, and subsequently rising concentrations (from 10 μM to 200 μM) of the L294 derivatives were added every ten minutes, diluted in DMSO. […] The signals recorded by the transducer were amplified (Cyberamp) and the isometric tension was digitized (Digidata 1322A) and stored on a computer. The screening and analysis of the experiment was handled through the use of the Axoscope 8.0 program. (Zapata-Sudo, 2003).
(§8) A measurement of the electrically-induced twitch amplitude was selected to assist the effects of the L294 analogs on the skeletal muscle inotropism. One muscle consisting of fast fibers (extensor digitorium longus-EDL) and the other of slow fibers (soleus-SOL) taken from mice were selected for this purpose. Differences in the timing of the twitches between the fast and slow muscles are shown at the faster recording speed. […] Washing the preparation with Krebs solution caused a partial reversion of the effects induced by the L786.

soleus (SOL) muscle = assay: Electrically induced twitch amplitude in slow-fiber skeletal muscle (SOL); assay type: cell-based, mice; conditions: for SOL twitch amplitude 30 min-Washing (% of the control): 30 min after washing
Protocol: as §7, §8

[5] = tested on: corpus cavernosa of a male guinea pig; assay: Phenylephrine-induced contracture in corpus cavernosa; assay type: cell-based; conditions: 200 μM; phenylephrine 30 μM
Protocol: It is noted that L788 concentration-dependent inhibition occurred for the contractile response of the corpus cavernosa.
This same Protocol Experiment was repeated for the other derivatives being tested and for the solvent separately (FIG. 11). It was noted that only L788 caused significant reaction, where the amplitude of the contracture at a concentration of 200 μM was 46.5±8.8% of the control. […] The effect of the solvent (DMSO) was tested at volumes corresponding to those used for the derivatives, and was unable to cause any significant alterations to the contractility of this tissue.

[6] = tested on: rat aorta rings with preserved endothelium; assay: KCl-induced contracture in aorta rings with preserved endothelium; assay type: cell-based; conditions: KCl 40 mM
Protocol: as §1, §5, §6
The effects of the L294 analogs were investigated in rat aorta rings with preserved endothelium whose contracture was induced by increasing the extra-cellular concentration of KCl to 40 mM. Of the seven L294 analogs, this test was carried out only with the L785, L786, L789 and L790, in this group of experiments.

[7] = tested on: rat aorta rings with no endothelium; assay: KCl-induced contracture in aorta rings without endothelium; assay type: cell-based; conditions: Rattus norvegicus; KCl 40 mM; without endothelium; six experiments; read-out: CI50 (μM) Average ± SEM
Protocol: as §1, §5
as §6, with “[…] […]” for “In order to investigate the vasodilator effect of the different L294 analogs, they were added to the experiment chambers in rising concentration after the contracture stabilization of the vessel induced by phenylephrine. The tension registered after treatment with each of the L294 analog concentrations was normalized as a function of the amplitude of the contracture triggered by phenylephrine.”

| SMILES | maximum alterations to the papillary muscle twitches (rat papillary muscle) | muscular response in ventricular bundles [1] | IC50 [2] [µM] | maximum inhibition levels of phenylephrine contracture, with endothelium [2] [%] | IC50 [3] [µM] | EDL twitch amplitude 200 μM (% of the control) [4] | EDL twitch amplitude 30 min-Washing (% of the control) [4] | SOL twitch amplitude 200 μM (% of the control) (soleus (SOL) muscle) | amplitude of the papillary muscle twitches (rat papillary muscle) | muscle twitches / contractility in ventricular bundles ([1]; 100 μM) | amplitude of the phenylephrine contracture in rings with whole endothelium ([2]; maximum effect) | amplitude of the phenylephrine-induced contracture of the corpus cavernosa [5] | SOL twitch amplitude 30 min-Washing (% of the control) (soleus (SOL) muscle) | amplitude of the KCl contracture, with endothelium ([6]; 200 μM stated for L790) | CI50 (μM) Average ± SEM ([6]; with endothelium, six experiments) | inhibition of the KCl contracture, with endothelium ([6]; up to 100 μM, result in words) | vasodilatory / relaxing effect on phenylephrine contracture, without endothelium [3] | IC50 [7] [µM] |
| --- | --- | --- | --- | --- | --- | --- | --- | --- | --- | --- | --- | --- | --- | --- | --- | --- | --- | --- |
| Cc1ccc(/C=N/NC(=O)c2ccc3c(c2)OCO3)s1 [L787, 1,3-Benzodioxol-5-carboxylic acid, [1-(5-methyl-thiophene-2-yl)-meth-(E)-ylidene]-hydrazide] | 115.0±5.0 % of the control | 105±6.9 % of the control | 293 ± 76 | 37.1±7.0 | 273 ± 22 | 37.8±3.5 % of the control | 38.6 ± 2.5 % of the control | 47.6±4.2 % of the control | – | – | – | – | – | – | – | – | – | – |
| C=CCN(/N=C/c1cccs1)C(=O)c1ccc2c(c1)OCO2 [L788, 1,3-Benzodioxol-5-carboxylic acid, N′-[1-thiophene-2-yl-meth-(E)-ylidene]-N-allyl-hydrazide] | – | – | 67.9 ± 6.5 | – | 65.7 ± 8 | 47.6±5.4 % of the control | 26.8 ± 2.3 % of the control | 45.1±5.1 % of the control | 81.2±2.6 % of the control | 74.9±5.1 % of the control | 10.4±3.2 % of the control | 46.5±8.8 % of the control | 37.8 ± 4.7 % of the control | – | – | – | – | – |
| O=C(N/N=C/c1ccc([N+](=O)[O-])s1)c1ccc2c(c1)OCO2 [L790, 1,3-Benzodioxol-5-carboxylic acid, [1-(5-nitro-thiophene-2-yl)-meth-(E)-ylidene]-hydrazide] | 87.8±5.6 % of the control | 92.3±1.6 % of the control | 216 ± 39.3 | 47.0±5.9 | – | 52.2±3.4 % of the control and 52.2 ± 3.8 % of the control | 49.2 ± 5.1 % of the control | 71.3±5.2 % of the control | – | – | – | – | 70.8 ± 7.7 % of the control | 74.9±8.8 % of the control | cannot be determined | insignificant | absence of the relaxing effect; also recorded: lacked vasodilatory action; also recorded: did not cause a significant relaxing effect | 123 ± 17.3 |
| O=C(NNCc1cccs1)c1ccc2c(c1)OCO2 [L791, 1,3-Benzodioxol-5-carboxylic acid, N′-thiophene-2-ylmethyl-hydrazide] | 92.4±2.5 % of the control | 89.4±4.5 % of the control | 173 ± 26.7 | 59.2±7.8 | – | 45.8±6.9 % of the control and 45.9 ± 6.9 % of the control | – | 69.3±4.8 % of the control | did not significantly alter the contractile response | – | – | – | 74.4 ± 13.8 % of the control | – | – | – | did not result in any vasodilatory activity; also recorded: lacked vasodilatory action | – |
